Data on six molecules can be found in patent US20250361240A1, “PYRANOPYRIDINE COMPOUND, PROCESS FOR PREPARING THE SAME, PHARMACEUTICAL COMPOSITION AND USE THEREOF” (Zhejiang Yangli Pharmaceutical Technology Co., Ltd., priority 2024, published 2025).

Molecules are shown by their SMILES.

One series deals with human CYP11B1 (Homo sapiens (Human), UniProt P15538). The series can be described thus: Inhibitory activity against hCYP11B1 in G-402 CYP11B1 high expression stable transformants (cortisol HTRF). Type of series: cell-based. The conditions noted are these: G-402 CYP11B1 cells, 0.2 μM 11-deoxycortisol, 16 hours; read-out: hCYP11B1 Abs IC50. How it is done:
(§1) 1. Experimental System: G-402 CYP11B2 or CYP11B1 High Expression Stable Transformants
(§2) The above-mentioned high-expression stable transformants were constructed based on human […] cell line G-402. The artificial lentiviruses were introduced into human CYP11B2 (NM_000498.3) and CYP11B1 (NM_000497.4), respectively.
(§3) Maintenance medium: McCoy's 5A (modified, #16600082, GIBCO)+10% FBS (GIBCO)+1 μg/mL puromycin (A1113803, GIBCO).
(§4) Resuscitation and seeding medium: McCoy's 5A (modified, #16600082, GIBCO)+10% FBS (GIBCO).
(§5) Reaction medium: DMEM/F12 (#11320033, GIBCO)+2.5% activated charcoal filtered FBS (S11695, R & D).
(§6) Seeding: Cells were cultured to a suitable state after resuscitation with maintenance medium, and 96-well flat plates were seeded with seeding medium according to 1×10^4/100 μL/well (unified cell volume).
(§7) Changing solution: The supernatant was aspirated and discarded after seeding overnight (>12 hours) and adherence. 100-150 μL/well serum-free medium was added, and after being aspirated. After aspiration, 50 μL/well reaction medium was added for later use.
(§8) Formulation: Compound was diluted with reaction medium containing 0.4 μM substrate (final experimental concentration is 0.2 μM):
CYP11B1 substrate: 11-deoxycortisol (11-deoxycortisol, S4775, selleckchem). The final reaction concentration was 0.2 μM.
(§9) Loading: The above compound dilutions were added to the cell plates at 50 μL/well. The background and control wells were set.
(§10) Treating and sampling: The cell plates were incubated in a cell incubator for 16 hours after loading, and then each cell plate was centrifuged at 450 g for 2 min. 75 μL supernatant was transferred to a collection plate and frozen at −80° C. for future use (or direct detection).
(§11) Detection: Homogeneous time-resolved fluorescence kit (Cisbio HTRF kit, Cat.64ALDPEG, Cat.62CRTPEG) was used to determine the concentration of aldosterone or cortisol in the supernatant.
(§12) Analysis: The absolute IC50 (Abs IC50) for each compound was calculated using a four parameter fit.

The nature of series [1]: Pharmacokinetic test in cynomolgus monkeys (LC/MS). Type of series: in vivo, cynomolgus monkeys (Macaca fascicularis). The conditions noted are these: both sexes, cynomolgus monkey, plasma, 0.05 mg/kg, 0.05mpk oral. An excerpt: (§13) Adult cynomolgus monkeys (Macaca fascicularis) with suitable body weight and age were selected. 1 male and 1 female cynomolgus monkeys were used for experiment. The adaptation period was 1 week. On the day of the experiment, monkeys were individually housed in stainless steel mesh cages for testing.
(§14) Oral treatment and ACTH working solution (working solution diluted to the desired concentration in PBS sterile solution by ultrapure water filtration through a 0.22 μm filter using Tetracosactrin (HY-P0060, MCE)) were administered as follows: • T=0, 2 monkeys in each group were orally administered 0.5 mg/kg (compound was suspended in 5% aqueous sodium hydroxymethylcellulose solution as vehicle) in a fixed volume of 2 mL/kg; • T=+1 hour (i.e., 1 hour after administration), 14.5 μg/kg of the aforementioned ACTH working solution was injected intramuscularly.
(§15) Sampling test: Blood samples (collected in EDTA anticoagulant tubes) were collected before oral administration (Pre-dose) and 0.5 h, 1 h, 2 h, 4 h, 6 h and 12 h after administration for cortisol concentration measurement in plasma. The blood was centrifuged at 10000 rpm for 15 minutes at 4° C., followed by separation of the plasma and uniform storage at −80° C. for further analysis using an Roche biochemical analyzer to detect aldosterone and cortisol in plasma, and a portion of the plasma (0.5 h, 1 h, 2 h, 4 h, 6 h, and 12 h after administration, and an additional blood collection after 24 h) was taken simultaneously to determine the pharmacokinetic parameters by LC/MS.
(§16) The above experiment was repeated except that: T=0, two monkeys in each group were orally administered at a dose of 0.05 mg/kg (compound was suspended in 5% aqueous sodium hydroxymethylcellulose as vehicle) in a fixed volume of 2 mL/kg.

Another series deals with cortisol levels. The series is described as follows: Pharmacodynamic test in cynomolgus monkeys with ACTH stimulation: cortisol in plasma. Format: in vivo, cynomolgus monkeys (Macaca fascicularis). The settings on record: 0.05 mg/kg oral.
Source text: as §13, §14, §15, §16

For another series, the target named is human CYP11B2 (Homo sapiens (Human), UniProt P19099). The series is described as follows: Inhibitory activity against hCYP11B2 in G-402 CYP11B2 high expression stable transformants (aldosterone HTRF). Type of series: cell-based. The settings on record: for IC50: G-402 CYP11B2 cells, 0.2 μM 11-deoxycorticosterone, 16 hours, read-out: hCYP11B2 (AS) Abs IC50; for hCYP11B ½ Selectivity Fold: hCYP11B1 IC50 relative to hCYP11B2 IC50; for selectivity (in words): hCYP11B2 versus hCYP11B1, compared with reference Baxdrostat. How it is done: as §1, §2, §3, §4, §5, §6, §7, §8
CYP11B2 substrate: 11-deoxycorticosterone (11-deoxycorticosterone, S4243, selleckchem). The final reaction concentration was 0.2 μM
as §9, §10, §11, §12

The subject of the next series is aldosterone synthesis. The series is described as follows: Pharmacodynamic test in cynomolgus monkeys with ACTH stimulation: aldosterone in plasma. Format: in vivo, cynomolgus monkeys (Macaca fascicularis). The conditions noted are these: 0.05 mg/kg oral.
Source text: as §13, §14, §15, §16

Chain of human CYP11B2 (P19099 25-503): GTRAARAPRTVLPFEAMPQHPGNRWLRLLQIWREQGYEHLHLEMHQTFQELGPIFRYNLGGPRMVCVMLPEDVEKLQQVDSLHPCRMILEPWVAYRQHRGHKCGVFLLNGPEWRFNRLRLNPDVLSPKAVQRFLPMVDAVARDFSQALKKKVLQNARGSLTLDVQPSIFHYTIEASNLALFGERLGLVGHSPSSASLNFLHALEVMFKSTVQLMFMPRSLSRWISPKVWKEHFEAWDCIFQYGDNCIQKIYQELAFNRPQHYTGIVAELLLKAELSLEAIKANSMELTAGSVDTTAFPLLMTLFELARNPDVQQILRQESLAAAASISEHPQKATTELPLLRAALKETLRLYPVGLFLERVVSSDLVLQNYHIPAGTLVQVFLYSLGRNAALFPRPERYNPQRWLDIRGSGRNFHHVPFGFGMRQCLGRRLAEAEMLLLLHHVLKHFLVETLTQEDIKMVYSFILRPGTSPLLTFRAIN
Chain of human CYP11B1 (P15538 25-503): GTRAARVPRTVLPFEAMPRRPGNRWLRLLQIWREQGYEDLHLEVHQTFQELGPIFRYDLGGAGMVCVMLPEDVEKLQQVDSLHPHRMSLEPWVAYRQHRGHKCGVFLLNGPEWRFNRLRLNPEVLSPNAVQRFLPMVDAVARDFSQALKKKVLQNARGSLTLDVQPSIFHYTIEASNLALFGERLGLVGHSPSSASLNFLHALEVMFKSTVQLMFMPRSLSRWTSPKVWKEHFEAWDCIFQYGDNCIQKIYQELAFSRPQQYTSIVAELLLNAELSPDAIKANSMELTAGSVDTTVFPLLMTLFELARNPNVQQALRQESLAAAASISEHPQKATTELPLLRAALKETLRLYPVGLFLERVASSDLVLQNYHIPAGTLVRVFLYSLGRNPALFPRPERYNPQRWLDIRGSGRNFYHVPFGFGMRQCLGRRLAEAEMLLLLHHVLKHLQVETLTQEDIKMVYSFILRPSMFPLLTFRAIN

Take `[2H][C@@]1(NC(=O)CC)CCOc2c(-c3ccc4c(c3)CCC(=O)N4C)cncc21` [Example 2, (R)-N-(8-(1-methyl-2-oxo-1,2,3,4-tetrahydroquinolin-6-yl)-3,4-dihydro-2H-pyran[3,2-c]pyridin-4-yl-4-D)propanamide]: the IC50 at human CYP11B1 worked out at 5360 nM; at human CYP11B2, 37.1 nM. In addition, in series [1], the Cmax turned out to be 11.9 ng/mL. Moreover, in series [1], the Tmax is 2 h. The half-life in series [1] was 9.7 h. In addition, in series [1] (read-out: AUC0-24 h), the AUC(0-t) turned out to be 165 ng·h/mL. The “Cortisol Concentration in Plasma” value stood at 1299.9 pg/mL in the series on cortisol levels (0.5 h); 1178.3 pg/mL in the series with cortisol levels (1 h (ACTH at +1 hour)); 1809.0 pg/mL in the series with cortisol levels (2 h); 872.2 pg/mL with cortisol levels (4 h); 451.8 pg/mL with cortisol levels (6 h); 710.2 pg/mL with cortisol levels (12 h). Besides, the “Cortisol Concentration in Plasma” value in the series on cortisol levels (Pre-dose) was 838.9 pg/mL. Also, at human CYP11B2, the “hCYP11B ½ Selectivity Fold” value amounted to 144.47 Fold. Moreover, at human CYP11B2, the “selectivity (in words)” value is on record as “better selectivity”. Besides, in the series with aldosterone synthesis, the “effect on aldosterone synthesis (in words)” value is listed as “no potent inhibition of aldosterone synthesis”. Moreover, the “Aldosterone Concentration in Plasma” value in the series with aldosterone synthesis (0.5 h) came out at 1057.1 pg/mL; in the series with aldosterone synthesis (1 h (ACTH at +1 hour)), 807.59 pg/mL; with aldosterone synthesis (2 h) it was 337.76 pg/mL; with aldosterone synthesis (4 h), 105.97 pg/mL; in the series on aldosterone synthesis (6 h), 101.15 pg/mL; with aldosterone synthesis (12 h), 112.02 pg/mL. Besides, in the series on aldosterone synthesis (Pre-dose), the “Aldosterone Concentration in Plasma” value is recorded as 432.52 pg/mL.
As for `CN(C)C(=O)N[C@@H]1CCOc2c(-c3ccc4c(c3)CCC(=O)N4C)cncc21` [Example 3, (R)-1,1-dimethyl-3-(8-(1-methyl-2-oxo-1,2,3,4-tetrahydroquinolin-6-yl)-3,4-dihydro-2H-pyran[3,2-c]pyridin-4-yl)urea], the IC50 on human CYP11B1 amounted to 5250 nM. For the same molecule, at human CYP11B2, the IC50 stood at 61.1 nM and the “hCYP11B ½ Selectivity Fold” value worked out at 85.95 Fold.
In the same order, the values of `[2H][C@@]1(NC(=O)CC)CCOc2c(-c3cc4c(cc3F)N(C)C(=O)CC4)cncc21` [Example 4, (R)-N-(8-(7-fluoro-1-methyl-2-oxo-1,2,3,4-tetrahydroquinolin-6-yl)-3,4-dihydro-2H-pyran[3,2-c]pyridin-4-yl-4-d)propanamide] are 4800 nM, 42.7 nM and 112.51 Fold.
In the same order, the values of `[2H][C@@]1(NC(=O)N(C)C)CCOc2c(-c3ccc4c(c3)CCC(=O)N4C)cncc21` [Example 5, (R)-1,1-dimethyl-3-(8-(1-methyl-2-oxo-1,2,3,4-tetrahydroquinolin-6-yl)-3,4-dihydro-2H-pyran[3,2-c]pyridin-4-yl-4-d)urea] are 3380 nM, 49.6 nM and 68.19 Fold.
Consider `CN(C)C(=O)N[C@@H]1CCOc2c(-c3cc4c(cc3F)N(C)C(=O)CC4)cncc21` [Example 6, (R)-3-(8-(7-fluoro-1-methyl-2-oxo-1,2,3,4-tetrahydroquinolin-6-yl)-3,4-dihydro-2H-pyran[3,2-c]pyridin-4-yl)-1,1-dimethylurea], for which the IC50 at human CYP11B1 is over 10000 nM. At human CYP11B2, the IC50 was 77.3 nM, the “hCYP11B ½ Selectivity Fold” value is recorded as over 129.37 Fold and the “selectivity (in words)” value is recorded as “better selectivity”.
`[2H][C@@]1(NC(=O)N(C)C)CCOc2c(-c3cc4c(cc3F)N(C)C(=O)CC4)cncc21` [Example 7, (R)-3-(8-(7-Fluoro-1-methyl-2-oxo-1,2,3,4-tetrahydroquinolin-6-yl)-3,4-dihydro-2H-pyran[3,2-c]pyridin-4-yl-4-d)-1,1-dimethylurea]: the IC50 at human CYP11B1 was over 10000 nM; on human CYP11B2, 172 nM. The “hCYP11B ½ Selectivity Fold” value on human CYP11B2 is given as over 58 Fold.

In general, IC50 refers to the concentration at which inhibition is half-maximal. The term Cmax denotes the highest concentration seen after dosing. A word on the Tmax: it is the time from dosing to the highest level. A word on the half-life: it is how long it takes for the measured level to halve.
